This assay has as its target T1, human P2X3 receptor (Homo sapiens, UniProt P56373).
T1 sequence (P56373 1-397): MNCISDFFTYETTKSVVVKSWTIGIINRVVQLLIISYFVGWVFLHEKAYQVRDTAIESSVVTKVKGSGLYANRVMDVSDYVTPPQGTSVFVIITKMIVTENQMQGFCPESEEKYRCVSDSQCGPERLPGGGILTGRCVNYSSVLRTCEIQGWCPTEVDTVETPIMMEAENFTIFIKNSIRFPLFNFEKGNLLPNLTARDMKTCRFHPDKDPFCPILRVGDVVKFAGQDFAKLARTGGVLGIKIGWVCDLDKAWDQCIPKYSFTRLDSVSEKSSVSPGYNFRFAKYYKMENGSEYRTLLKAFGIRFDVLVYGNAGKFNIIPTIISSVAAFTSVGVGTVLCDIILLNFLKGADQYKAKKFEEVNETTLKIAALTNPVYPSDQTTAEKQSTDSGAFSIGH
Description: Intracellular calcium measurement to assess antagonist activity at human P2X3 receptors (hP2X3 CHO), photina luminescence. Set-up: expressed in transfected cells; host or cells: Chinese hamster ovary (CHO) cells. The conditions noted are these: column 2), CHO cells, agonist α,β-methylene-ATP at EC50. Format: cell-based. As to the method:
2) Intracellular Calcium Measurement to Assess Antagonist Activity at Human P2X3 Receptors (hP2X3 CHO)
The determination of antagonistic activity at the P2X3 receptor of the compounds of the invention was performed by use of a recombinant cell line. This cell line derives originally from the Chinese hamster ovary (CHO) cell line (Tjio J. H.; Puck T. T., 1958, J. Exp. Med. 108: 259-271). The cell line is stably transfected with the human P2X3 receptor and a calcium-sensitive photoprotein, mitochondrial photina, which, after reconstitution with the cofactor coelenterazine, emits light in dependence of calcium binding [Bovolenta S, Foti M, Lohmer S, Corazza S., J Biomol Screen. 2007 August; 12(5):694-704]. The strength of the photina luminescence signal corresponds to the level of receptor activation upon agonist binding. An inhibitor would decrease the signal depending on its potency and concentration. Bioluminescence was detected using a suitable luminometer [Milligan G, Marshall F, Rees S, Trends in Pharmacological Sciences 17,235-237 (1996)].
On the day before the assay, the cells were plated out in culture medium (DMEM/F12 (PAN, P04-41451), 10% FCS) in 384-well microtiter plates and kept in a cell incubator (96% humidity, 5% v/v CO2, […]). On the day of the assay medium was replaced by 2 mM Ca-tyrode buffer containing 5 μg/ml coelenterazine. Plates were incubated for 3 hours at 37° C. (96% humidity, 5% v/v CO2). […] The resulting light signal was measured immediately in the luminometer.
For `CCc1cc2n(CC(=O)Nc3ccc(F)cn3)c3c(c(=O)n2n1)CN(C(C)CO)C3=O` (racemic) [Example 137, 2-{2-ethyl-6-[(±)-1-hydroxypropan-2-yl]-5,8-dioxo-5,6,7,8-tetrahydro-4H-pyrazolo[1,5-a]pyrrolo[3,4-d]pyrimidin-4-yl}-N-(5-fluoropyridin-2-yl)acetamide], the IC50 was 155 nM. As for `CC(C)N1Cc2c(n(CC(=O)Nc3ccc(F)cn3)c3cc([C@@H]4CCOC4)nn3c2=O)C1=O` (single isomer, unassigned) [Example 280, 2-{5,8-dioxo-2-[oxolan-3-yl]-6-(propan-2-yl)-5,6,7,8-tetrahydro-4H-pyrazolo[1,5-a]pyrrolo[3,4-d]pyrimidin-4-yl}-N-(5-fluoropyridin-2-yl)acetamide], the IC50 is 57 nM. As for `CC(C)N1Cc2c(n(CC(=O)Nc3ccc(F)cn3)c3cc([C@H]4CCOC4)nn3c2=O)C1=O` (single isomer, unassigned) [Example 281, 2-{5,8-dioxo-2-[oxolan-3-yl]-6-(propan-2-yl)-5,6,7,8-tetrahydro-4H-pyrazolo[1,5-a]pyrrolo[3,4-d]pyrimidin-4-yl}-N-(5-fluoropyridin-2-yl)acetamide], the figure is 42 nM; as for `CC(C)N1Cc2c(n(CC(=O)Nc3ccc(F)cn3)c3cc(C(=O)O)nn3c2=O)C1=O` [Example 84, 4-{2-[(5-Fluoropyridin-2-yl)amino]-2-oxoethyl}-5,8-dioxo-6-(propan-2-yl)-5,6,7,8-tetrahydro-4H-pyrazolo[1,5-a]pyrrolo[3,4-d]pyrimidine-2-carboxylic acid], 1400 nM; as for `CCc1cc2n(CC(=O)Nc3ccc(F)cn3)c3c(c(=O)n2n1)CN(C1CCN(C)CC1)C3=O` [Example 87], 1650 nM. In the case of `O=C(Cn1c2c(c(=O)n3nc(C(F)(F)F)cc13)CN(CCN1CCOCC1)C2=O)Nc1ccc(F)cn1` [Example 103] it was 143 nM.

Turning to `O=C(Cn1c2c(c(=O)n3nc(Br)cc13)CN(CCN1CCOCC1)C2=O)Nc1ccc(F)cn1` [Example 111], the 50% inhibitory concentration (IC50) was determined as 225 nM. In the case of `CCc1cc2n(CC(=O)Nc3ccc(F)cn3)c3c(c(=O)n2n1)CN(CC1CCC1)C3=O` [Example 113] it was 113 nM; in that of `CCc1cc2n(CC(=O)Nc3ccc(F)cn3)c3c(c(=O)n2n1)CN(CC1CN(C(=O)OC(C)(C)C)C1)C3=O` [Example 115], 205 nM; in that of `CCc1cc2n(CC(=O)Nc3ccc(F)cn3)c3c(c(=O)n2n1)CN(C1CN(C(=O)OC(C)(C)C)C1)C3=O` [Example 116], 585 nM. With `CCc1cc2n(CC(=O)Nc3ccc(F)cn3)c3c(c(=O)n2n1)CN(C1CCCOC1)C3=O` (stereo not drawn) [Example 118], the IC50 was 131 nM. In the case of `CCc1cc2n(CC(=O)Nc3ccc(F)cn3)c3c(c(=O)n2n1)CN(C1CCS(=O)(=O)CC1)C3=O` [Example 119] it was 470 nM; in that of `CCOC(=O)c1cc2n(CC(=O)Nc3ccc(F)cn3)c3c(c(=O)n2n1)CN(C1CCOCC1)C3=O` [Example 122], 94 nM; in that of `CCOC(=O)c1cc2n(CC(=O)Nc3ccc(F)cn3)c3c(c(=O)n2n1)CN(CCN1CCOCC1)C3=O` [Example 123], 21 nM. With `CCOC(=O)c1cc2n(CC(=O)Nc3ccc(F)cn3)c3c(c(=O)n2n1)CN(Cc1ccccn1)C3=O` [Example 124], the IC50 is 10 nM. In the case of `Cc1cc2n(CC(=O)Nc3ccc(F)cn3)c3c(c(=O)n2n1)CN(CC1CCO1)C3=O` (stereo not drawn) [Example 125] it was 240 nM; in that of `CCc1cc2n(CC(=O)Nc3ccc(F)cn3)c3c(c(=O)n2n1)CN(CC)C3=O` [Example 126], 57 nM; in that of `CCc1cc2n(CC(=O)Nc3ccc(F)cn3)c3c(c(=O)n2n1)CN(C)C3=O` [Example 127], 43 nM.

On to `O=C(Cn1c2c(c(=O)n3nc(-c4ccncc4)cc13)CN(Cc1ccc(F)cc1)C2=O)Nc1ccc(F)cn1` [Example 129], for which the IC50 was 53 nM. In the case of `O=C(Cn1c2c(c(=O)n3nc(-c4ccncc4)cc13)CN(Cc1ccccn1)C2=O)Nc1ccc(F)cn1` [Example 130] it was 14 nM. Turning to `O=C(Cn1c2c(c(=O)n3nc(-c4ccncc4)cc13)CN(Cc1cccnc1)C2=O)Nc1ccc(F)cn1` [Example 131], the IC50 is 14 nM.

`O=C(Cn1c2c(c(=O)n3nc(-c4ccncc4)cc13)CN(CCN1CCOCC1)C2=O)Nc1ccc(F)cn1` [Example 132]: the IC50 turned out to be 18 nM.

With `CC(C)N1Cc2c(n(CC(=O)Nc3ccc(F)cn3)c3cc(Cc4ccccn4)nn3c2=O)C1=O` [Example 133], the concentration for half-maximal inhibition (IC50) came out at 22 nM. Turning to `CCc1cc2n(CC(=O)Nc3ccc(F)cn3)c3c(c(=O)n2n1)CN(C(C)(C)CO)C3=O` [Example 136, 2-[2-ethyl-6-(1-hydroxy-2-methylpropan-2-yl)-5,8-dioxo-5,6,7,8-tetrahydro-4H-pyrazolo[1,5-a]pyrrolo[3,4-d]pyrimidin-4-yl]-N-(5-fluoropyridin-2-yl)acetamide], the IC50 was found to be 56 nM.

As to `CC(C)N1Cc2c(n(CC(=O)Nc3ccc(F)cn3)c3cc(C4=COCC4)nn3c2=O)C1=O` [Example 144, 2-[2-(4,5-dihydrofuran-3-yl)-5,8-dioxo-6-(propan-2-yl)-5,6,7,8-tetrahydro-4H-pyrazolo[1,5-a]pyrrolo[3,4-d]pyrimidin-4-yl]-N-(5-fluoropyridin-2-yl)acetamide], the IC50 was determined as 36 nM. In the case of `CC(C)N1Cc2c(n(CC(=O)Nc3ccc(F)cn3)c3cc(C4=CCS(=O)(=O)CC4)nn3c2=O)C1=O` [Example 145, 2-[2-(1,1-dioxo-1,2,3,6-tetrahydro-1lambda^6-thiopyran-4-yl)-5,8-dioxo-6-(propan-2-yl)-5,6,7,8-tetrahydro-4H-pyrazolo[1,5-a]pyrrolo[3,4-d]pyrimidin-4-yl]-N-(5-fluoropyridin-2-yl)acetamide] it was 33 nM; in that of `N#Cc1cc2n(CC(=O)Nc3ccc(F)cn3)c3c(c(=O)n2n1)CN(CCN1CCOCC1)C3=O` [Example 147], 225 nM. As for `COC[C@H](C)N1Cc2c(n(CC(=O)Nc3ccc(F)cn3)c3cc(C#N)nn3c2=O)C1=O` [Example 148], the figure is 225 nM; as for `Cc1cccnc1-c1cc2n(CC(=O)Nc3ccc(F)cn3)c3c(c(=O)n2n1)CN(C(C)C)C3=O` [Example 163], 398 nM. In the case of `Cc1cnc(-c2cc3n(CC(=O)Nc4ccc(F)cn4)c4c(c(=O)n3n2)CN(C(C)C)C4=O)c(C)c1` [Example 166, 2-[2-(3,5-dimethylpyridin-2-yl)-5,8-dioxo-6-(propan-2-yl)-5,6,7,8-tetrahydro-4H-pyrazolo[1,5-a]pyrrolo[3,4-d]pyrimidin-4-yl]-N-(5-fluoropyridin-2-yl)acetamide] it was 5 nM. In the case of `CNc1cc2n(CC(=O)Nc3ccc(F)cn3)c3c(c(=O)n2n1)CN(C(C)C)C3=O` [Example 174], the IC50 came to 59 nM. As for `CNc1cc2n(CC(=O)Nc3ccc(F)cn3)c3c(c(=O)n2n1)CN([C@@H](C)COC)C3=O` [Example 179], the figure is 120 nM.

For `COc1ccccc1NC(=O)c1cc2n(CC(=O)Nc3ccc(F)cn3)c3c(c(=O)n2n1)CN(C(C)C)C3=O` [Example 202], the IC50 was 135 nM. Regarding `CC(C)N1Cc2c(n(CC(=O)Nc3ccc(F)cn3)c3cc(C(=O)Nc4ccccc4Cl)nn3c2=O)C1=O` [Example 203], the IC50 was determined as 25 nM. Take `Cc1ccccc1NC(=O)c1cc2n(CC(=O)Nc3ccc(F)cn3)c3c(c(=O)n2n1)CN(C(C)C)C3=O` [Example 204]: the IC50 was 36 nM. For `CC(C)N1Cc2c(n(CC(=O)Nc3ccc(F)cn3)c3cc(C(=O)Nc4cccc(F)c4)nn3c2=O)C1=O` [Example 206], the IC50 came to 47 nM. As for `CC(C)N1Cc2c(n(CC(=O)Nc3ccc(F)cn3)c3cc(C(=O)Nc4ccc(F)cc4)nn3c2=O)C1=O` [Example 208], the figure is 28 nM; as for `CC(C)N1Cc2c(n(CC(=O)Nc3ccc(F)cn3)c3cc(C(=O)Nc4ncco4)nn3c2=O)C1=O` [Example 209], 123 nM; as for `CC(C)N1Cc2c(n(CC(=O)Nc3ccc(F)cn3)c3cc(C(=O)Nc4ncccn4)nn3c2=O)C1=O` [Example 210], 28 nM.

Consider `CC(C)N1Cc2c(n(CC(=O)Nc3ccc(F)cn3)c3cc(C(=O)Nc4ccon4)nn3c2=O)C1=O` [Example 211], for which the IC50 amounted to 26 nM.

On to `CC(C)N1Cc2c(n(CC(=O)Nc3ccc(F)cn3)c3cc(C(=O)Nc4cccnn4)nn3c2=O)C1=O` [Example 212], for which the half-inhibitory concentration (IC50) was determined as 22 nM. Take `CC(C)N1Cc2c(n(CC(=O)Nc3ccc(F)cn3)c3cc(C(=O)Nc4ccc(Cl)cn4)nn3c2=O)C1=O` [Example 213]: the IC50 came out at 93 nM.

The values are drawn from US11319324B2, “Pyrazolo-pyrrolo-pyrimidine-dione derivatives as P2X3 inhibitors” (Bayer Aktiengesellschaft, priority 2017, dated 2022).
